ChEMBL document CHEMBL1134920, “1,3,4-Trisubstituted pyrrolidine CCR5 receptor antagonists. Part 4: synthesis of N-1 acidic functionality affording analogues with enhanced antiviral activity against HIV” (Bioorg Med Chem Lett, 2002)

Legend:
[1] = system: Human immunodeficiency virus 1; assay: In vitro inhibition of HIV-1 BAL strain infection of HeLa cell line.; format: functional; details: Human immunodeficiency virus 1, HeLa
[2] = Half-life in rat; format: ADME, organism-based; details: in vivo
[3] = biological target: Voltage-gated L-type calcium channel (Homo sapiens, UniProt Q13936+Q13698+Q01668+O60840); assay: Inhibition of L-type Ca+2 channels; format: protein assay
[4] = Half-life in rhesus monkey; format: ADME; details: cercopithecidae, in vivo
[5] = Half-life in dog; format: ADME, organism-based, Canis lupus familiaris; details: in vivo
[6] = Volume of distribution in steady state was determined in rhesus monkey; format: ADME, organism-based; details: cercopithecidae, in vivo; read-out: Vdss
[7] = Plasma clearance in dog; format: ADME, organism-based, Canis lupus familiaris; details: read-out: Clp
[8] = Volume of distribution in steady state was determined in rat; format: ADME, organism-based; details: in vivo, read-out: Vdss
[9] = Bioavailability in Rhesus monkey; format: ADME, organism-based, Macaca mulatta; details: in vivo
[10] = Bioavailability in rat; format: ADME, organism-based; details: in vivo
[11] = biological target: C-C chemokine receptor type 5 (Homo sapiens, UniProt P51681); assay: In vitro binding affinity at CCR5 receptor in the presence of [125I]-MIP-1 alpha.
[12] = Plasma clearance in rat; format: ADME, organism-based; details: read-out: Clp
[13] = Volume of distribution in steady state was determined in dog; format: ADME, organism-based, Canis lupus familiaris; details: in vivo, read-out: Vdss
[14] = Plasma clearance in rhesus monkey; format: ADME, organism-based; details: cercopithecidae, read-out: Clp
[15] = Inhibitory concentration was determined against peripheral blood mononuclear cells (PBMC); format: functional
[16] = Bioavailability in dog; format: ADME, organism-based, Canis lupus familiaris; details: in vivo
Macaca mulatta = species: Macaca mulatta; assay: Plasma clearance in rhesus monkey; details: read-out: Clp

C-C chemokine receptor type 5, sequence (P51681 whole entry): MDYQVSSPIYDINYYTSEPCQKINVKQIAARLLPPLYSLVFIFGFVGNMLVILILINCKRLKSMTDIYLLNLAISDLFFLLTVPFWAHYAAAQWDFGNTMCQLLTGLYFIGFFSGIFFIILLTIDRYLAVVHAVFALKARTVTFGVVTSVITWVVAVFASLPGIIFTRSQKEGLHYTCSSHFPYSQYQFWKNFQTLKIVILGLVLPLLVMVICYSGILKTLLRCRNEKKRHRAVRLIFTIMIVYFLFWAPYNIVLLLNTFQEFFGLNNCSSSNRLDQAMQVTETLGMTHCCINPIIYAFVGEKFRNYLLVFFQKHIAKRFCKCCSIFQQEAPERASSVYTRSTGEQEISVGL

O=C(O)[C@@H](C1CCCCC1)N1C[C@H](CN2CCC(CCCc3ccccc3)CC2)[C@@H](c2ccccc2)C1
IC90 [1]: 11 nM
half-life [2]: 126 min
IC50 [3]: 5.3 µM
half-life [4]: 378 min
half-life [5]: 552 min
Vd [6]: 6.2 L/kg
clearance [7]: 10.9 mL/min/kg
Vd [8]: 3.3 L/kg
bioavailability [9]: 10%
bioavailability [10]: 26%
IC50 [11]: 0.1 nM
clearance [12]: 17.6 mL/min/kg
Vd [13]: 3.1 L/kg
clearance [14]: 17.1 mL/min/kg
IC95 [15]: 0.077 µM
bioavailability [16]: 43%

C[C@H](C(=O)O)N1C[C@H](CN2CCC(O)(CCCc3ccccc3)CC2)[C@@H](c2ccccc2)C1
IC90 [1]: 333 nM
IC50 [11]: 3 nM

OC[C@H](C1CCCCC1)N1C[C@H](CN2CCC(O)(CCCc3ccccc3)CC2)[C@@H](c2ccccc2)C1
IC50 [11]: 1 nM

O=C(O)[C@@H](C1CCCC1)N1C[C@H](CN2CCC(CCCc3ccccc3)CC2)[C@@H](c2ccccc2)C1
IC90 [1]: 11 nM
IC50 [11]: 0.2 nM

O=C(O)CN1C[C@H](CN2CCC(O)(CCCc3ccccc3)CC2)[C@@H](c2ccccc2)C1
IC90 [1]: 3000 nM
IC50 [11]: 6 nM

O=C(O)[C@@H](C1CCCCC1)N1C[C@H](CN2CCC(c3ccc(F)cc3)CC2)[C@@H](c2ccccc2)C1
IC90 [1]: 0.4 nM
IC50 [11]: 4 nM

OC1(CCCc2ccc(-c3nnn[nH]3)cc2)CCN(C[C@H]2CN(CC3CCCCC3)C[C@@H]2c2ccccc2)CC1
IC90 [1]: 4 nM
half-life [2]: 18 min
IC50 [3]: > 10 µM
bioavailability [10]: 0%

O=C(O)[C@@H](CC1CC1)N1C[C@H](CN2CCC(CCCc3ccccc3)CC2)[C@@H](c2ccccc2)C1
IC90 [1]: 11 nM
IC50 [11]: 0.1 nM

O=C(O)[C@@H](C1CC1)N1C[C@H](CN2CCC(CCCc3ccccc3)CC2)[C@@H](c2ccccc2)C1
IC90 [1]: 300 nM
IC50 [11]: 3 nM

O=C(O)[C@@H](C1CCCCC1)N1C[C@H](CN2CCC(O)(CCCc3ccccc3)CC2)[C@@H](c2ccccc2)C1
IC90 [1]: 11 nM
half-life [2]: 108 min
Vd [8]: 15 L/kg
bioavailability [10]: 0%
IC50 [11]: 0.5 nM
clearance [12]: 128 mL/min/kg
IC95 [15]: 0.187 µM

O=C(O)[C@@H](C1CCC1)N1C[C@H](CN2CCC(CCCc3ccccc3)CC2)[C@@H](c2ccccc2)C1
IC90 [1]: 11 nM
IC50 [11]: 0.1 nM

O=C(O)[C@H](C1CCCCC1)N1C[C@H](CN2CCC(O)(CCCc3ccccc3)CC2)[C@@H](c2ccccc2)C1
IC90 [1]: > 300 nM
IC50 [11]: 5 nM

OC[C@@H](C1CCCCC1)N1C[C@H](CN2CCC(O)(CCCc3ccccc3)CC2)[C@@H](c2ccccc2)C1
IC90 [1]: 300 nM
IC50 [11]: 1 nM

CC(C)[C@H](C(=O)O)N1C[C@H](CN2CCC(O)(CCCc3ccccc3)CC2)[C@@H](c2ccccc2)C1
IC90 [1]: 333 nM
IC50 [11]: 2 nM

O=C(O)[C@@H](c1ccccc1)N1C[C@H](CN2CCC(O)(CCCc3ccccc3)CC2)[C@@H](c2ccccc2)C1
IC90 [1]: 33 nM
IC50 [11]: 0.8 nM

O=C(OCc1ccccc1)[C@@H](C1CCCCC1)N1C[C@H](CN2CCC(O)(CCCc3ccccc3)CC2)[C@@H](c2ccccc2)C1
IC90 [1]: > 300 nM
IC50 [11]: 3.6 nM

O=C(O)[C@@H](CC1CCC1)N1C[C@H](CN2CCC(CCCc3ccccc3)CC2)[C@@H](c2ccccc2)C1
IC90 [1]: 1.2 nM
half-life [2]: 180 min
IC50 [3]: 2.7 µM
Vd [8]: 5.9 L/kg
bioavailability [10]: 29%
IC50 [11]: 0.1 nM
clearance [12]: 26.5 mL/min/kg
IC95 [15]: < 0.008 µM

COC(=O)[C@@H](C1CCCCC1)N1C[C@H](CN2CCC(O)(CCCc3ccccc3)CC2)[C@@H](c2ccccc2)C1
IC50 [11]: 1 nM

O=C(OCc1ccccc1)[C@H](C1CCCCC1)N1C[C@H](CN2CCC(O)(CCCc3ccccc3)CC2)[C@@H](c2ccccc2)C1
IC90 [1]: > 300 nM
IC50 [11]: 24 nM

CC(C)[C@H](C(=O)O)N1C[C@H](CN2CCC(CCCc3ccccc3)CC2)[C@@H](c2ccccc2)C1
IC90 [1]: 111 nM
IC50 [11]: 0.7 nM

COC(=O)[C@H](C1CCCCC1)N1C[C@H](CN2CCC(O)(CCCc3ccccc3)CC2)[C@@H](c2ccccc2)C1
IC50 [11]: 4 nM

CC(C)[C@H](C(=O)O)N1C[C@H](CN2CCC(c3ccc(F)cc3)CC2)[C@@H](c2ccccc2)C1
IC90 [1]: > 100 nM
half-life [2]: 114 min
clearance (Macaca mulatta): 14.6 mL/min/kg
IC50 [3]: > 10 µM
half-life [4]: 468 min
half-life [5]: 384 min
Vd [6]: 4.2 L/kg
clearance [7]: 13.1 mL/min/kg
Vd [8]: 8.4 L/kg
bioavailability [9]: 84%
bioavailability [10]: 50%
IC50 [11]: 36 nM
clearance [12]: 68.3 mL/min/kg
Vd [13]: 8.6 L/kg
IC95 [15]: > 3 µM
bioavailability [16]: 34%
